Literature values, collected in US20090233914A1, “Composition for treatment of nail infections” (Ondine International, Ltd., priority 2008, published 2009).

Test system: onychomycosis
Conditions: for side effects: human, in vivo, po

In the case of `OC(Cn1cncn1)(Cn1cncn1)c1ccc(F)cc1F` [Fluconazole], the side effects is given as “severe side effects”.

In the case of `COC1=CC(=O)C[C@@H](C)[C@]12Oc1c(Cl)c(OC)cc(OC)c1C2=O` [Griseofulvin], the side effects is listed as “undesired side effects” and the “effectiveness of treatment of onychomycosis” value (oral medicine) is listed as “largely ineffectual”.

In the case of `CN(C/C=C/C#CC(C)(C)C)Cc1cccc2ccccc12` [Lamisil, terbinafine], the “nail clearing in patients for one year” value (oral, once a day for 90 days) is listed as 70-80 % of patients.

In the case of `CCC(C)n1ncn(-c2ccc(N3CCN(c4ccc(OCC5COC(Cn6cncn6)(c6ccc(Cl)cc6Cl)O5)cc4)CC3)cc2)c1=O` (centres unmarked) [itraconazole], the side effects is listed as “somewhat severe”.
